These results are taken from ChEMBL document CHEMBL1150242, “Subinhibitory concentrations of antibiotics induce phenazine production in a marine Streptomyces sp” (2008).

Calls of active or inactive are those of the source. The rule behind the calls is not given here.

One assay has as its system Nakaseomyces glabratus. Briefly: Antibacterial activity against Candida glabrata. The assay is classed as functional, organism-based.
The next assay relates to Pseudomonas fluorescens. Nature of the assay: Antibacterial activity against Pseudomonas fluorescens. The assay is classed as functional, organism-based.
A further assay deals with Pseudomonas syringae. Briefly: Antibacterial activity against Pseudomonas syringae. The assay is classed as functional, organism-based.
A further assay has as its system Xanthomonas campestris. Briefly: Antibacterial activity against Xanthomonas campestris. Format: functional, organism-based.
Another assay has as its system Mammaliicoccus lentus. Nature of the assay: Antibacterial activity against Staphylococcus lentus. Format: functional.
Another assay deals with Escherichia coli. Briefly: Antibacterial activity against Escherichia coli. Format: functional, organism-based.
A further assay deals with Bacillus subtilis. Nature of the assay: Antibacterial activity against Bacillus subtilis. The assay is classed as functional.
The subject of another assay is Ralstonia solanacearum. Briefly: Antibacterial activity against Ralstonia solanacearum. Format: functional, organism-based.
For another assay, the system named is Erwinia amylovora. Nature of the assay: Antibacterial activity against Erwinia amylovora. The assay is classed as functional, organism-based.

Consider `COC(=O)C(c1cccc2nc3c(C(=O)O)cccc3nc12)C(O)CCCC(C)C` (stereo unspecified) [STREPTOPHENAZINE C], for which the result in the assay with Nakaseomyces glabratus, in the assay on Pseudomonas fluorescens, in the assay with Pseudomonas syringae, with Xanthomonas campestris, in the assay with Escherichia coli and with Ralstonia solanacearum was inactive. Moreover, the outcome in the assay with Erwinia amylovora was inactive. Further, the results for the Activity with Mammaliicoccus lentus and with Bacillus subtilis were 46.9 µg/mL and 15.6 µg/mL, respectively.

On to `CCCCCCC(O)C(C(=O)OC)c1cccc2nc3c(C(=O)OC)cccc3nc12` (stereo unspecified) [STREPTOPHENAZINE B], for which the result in the assay with Nakaseomyces glabratus, in the assay with Pseudomonas fluorescens, with Pseudomonas syringae, in the assay with Xanthomonas campestris, in the assay with Escherichia coli and in the assay on Bacillus subtilis was inactive. Also, the outcome with Ralstonia solanacearum and with Erwinia amylovora was inactive. This molecule also registered an Activity in the assay with Mammaliicoccus lentus of 62.5 µg/mL.

Turning to `COC(=O)c1cccc2nc3c(C(C(=O)OC)C(O)CCCC(C)C)cccc3nc12` (stereo unspecified) [STREPTOPHENAZINE A], the outcome in the assay on Nakaseomyces glabratus, in the assay on Pseudomonas fluorescens, in the assay with Pseudomonas syringae, in the assay on Xanthomonas campestris, with Escherichia coli and in the assay with Ralstonia solanacearum was inactive. In addition, in the assay on Erwinia amylovora, the result was inactive. The Activity in the assay on Mammaliicoccus lentus was 62.5 µg/mL; with Bacillus subtilis, 46.9 µg/mL.

Consider `CCCCC(O)C(C(=O)OC)c1cccc2nc3c(C(=O)OC)cccc3nc12` (stereo unspecified) [STREPTOPHENAZINE E], for which the result in the assay on Nakaseomyces glabratus was inactive. The molecule further came in with an Activity in the assay on Bacillus subtilis of 62.5 µg/mL.

For the molecule `COC(=O)c1cccc2nc3c(C(C(=O)OC)C(O)CCCC(C)(C)O)cccc3nc12` (stereo unspecified) [STREPTOPHENAZINE H], in the assay with Nakaseomyces glabratus, the result was inactive. The molecule also gave an Activity in the assay on Bacillus subtilis of 15.6 µg/mL.

Take `COC(=O)c1cccc2nc3c(C(C(=O)OC)C(O)CCC(C)C)cccc3nc12` (stereo unspecified) [STREPTOPHENAZINE D]: the outcome in the assay on Nakaseomyces glabratus was inactive. In the assay on Bacillus subtilis, this molecule yielded an Activity of 62.5 µg/mL.

As for `CCC(C)CCCC(O)C(C(=O)OC)c1cccc2nc3c(C(=O)OC)cccc3nc12` (stereo unspecified) [STREPTOPHENAZINE G], the result with Nakaseomyces glabratus, in the assay on Pseudomonas fluorescens, in the assay on Pseudomonas syringae, in the assay with Xanthomonas campestris, in the assay with Escherichia coli and with Bacillus subtilis was inactive. Also, the outcome in the assay on Ralstonia solanacearum and in the assay on Erwinia amylovora was inactive. Besides, the Activity with Mammaliicoccus lentus was found to be 62.5 µg/mL.

`COC(=O)c1cccc2nc3c(C(C(=O)OC)C(O)CCCCC(C)C)cccc3nc12` (stereo unspecified) [STREPTOPHENAZINE F]: the result with Nakaseomyces glabratus, in the assay on Pseudomonas fluorescens, in the assay on Pseudomonas syringae, in the assay on Xanthomonas campestris, in the assay with Escherichia coli and in the assay on Bacillus subtilis was inactive. Besides, the result in the assay with Ralstonia solanacearum and with Erwinia amylovora was inactive. In addition, in the assay on Mammaliicoccus lentus, the Activity was found to be 62.5 µg/mL.
